Laboratory results published in US8735387B2, “Oxazolopyrimidines as Edg-1 receptor agonists” (Sanofi, priority 2008, dated 2014).

The compounds below were run against T1, human Edg-1 receptor (Homo sapiens, UniProt P21453) (assay: GTP-γ-S assay using human Edg-1 receptors (scintillation proximity assay, membrane preparation from CHO Flp-In cell line)). Conditions: example compound at 10 μM; relative to 10 μM S1P; GTP-γ-S SPA, human Edg-1 membranes.
T1 construct: expressed in transfected cells; membrane preparation
T1 sequence (P21453 whole entry): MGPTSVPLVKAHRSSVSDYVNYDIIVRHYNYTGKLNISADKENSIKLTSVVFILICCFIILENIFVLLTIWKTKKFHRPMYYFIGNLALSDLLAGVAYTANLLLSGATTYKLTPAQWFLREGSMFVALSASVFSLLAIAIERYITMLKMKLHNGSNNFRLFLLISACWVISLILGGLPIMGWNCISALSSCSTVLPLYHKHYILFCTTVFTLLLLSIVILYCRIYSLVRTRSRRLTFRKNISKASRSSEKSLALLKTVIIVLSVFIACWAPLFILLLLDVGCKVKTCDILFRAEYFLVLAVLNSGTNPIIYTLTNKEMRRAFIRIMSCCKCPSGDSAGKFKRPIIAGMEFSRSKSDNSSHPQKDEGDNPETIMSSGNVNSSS
Assay type: biochemical
Summary of the method: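 Membranes came from Flp-In CHO cells constitutively expressing human Edg-1 carrying an N-terminal FLAG tag. Compound-induced receptor activation was read as GTP-γ-S binding in a scintillation proximity format.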

Compound | % Activation (Edg-1 receptor activation in percent of the activation by 10 μM S1P) [%]
CCCOc1nc(Cc2ccc(Cl)cc2)nc2oc(-c3cc(C)c(OCC(O)CNCc4ccccc4)c(C)c3)nc12 (centres unmarked) [Example 209] | 110
CCOc1nc(Cc2ccc(Cl)cc2)nc2oc(-c3cc(C)c(OCC(O)CNC(=O)CO)c(C)c3)nc12 (centres unmarked) [Example 258] | 97
CCOc1nc(Cc2ccc(Cl)cc2)nc2oc(-c3cc(C)c(OCC(=O)N4CC[C@@H]5C[C@@]54C(=O)O)c(C)c3)nc12 [Example 318] | 101
CCCOc1nc(Cn2cnc(C)c2)nc2oc(-c3cccc(F)c3)nc12 [Example 57] | 99
CCCOc1nc(CN2CCCOCC2)nc2oc(-c3cccc(F)c3)nc12 [Example 34] | 90
CCOc1nc(Cc2ccc(Cl)cc2)nc2oc(-c3cc(C)c(OCC(=O)NCCCNS(C)(=O)=O)c(C)c3)nc12 [Example 299] | 94
Fc1cccc(-c2nc3c(OCC4CC4)nc(Cc4ccc(Cl)cc4)nc3o2)c1 [Example 104] | 87
CCCOc1nc(CN2CCC(F)(F)CC2)nc2oc(-c3cncc(F)c3)nc12 [Example 40] | 123
CCCOc1nc(Cc2ccc(Cl)cc2)nc2oc(-c3ccc(OCC(=O)O)c(Cl)c3)nc12 [Example 219] | 107
CCOc1nc(Cc2ccc(Cl)cc2)nc2oc(-c3cc(C)c(OCC(=O)NCCNS(C)(=O)=O)c(C)c3)nc12 [Example 290] | 114
CCOc1nc(Cc2ccc(Cl)cc2)nc2oc(-c3cc(C)c(OCC(O)CNCc4ccccc4)c(C)c3)nc12 (centres unmarked) [Example 257] | 122
CCCOc1nc(Cc2ccc(Cl)cc2)nc2oc(-c3ccc(C)cc3)nc12 [Example 100] | 88
CCOc1nc(Cc2ccc(Cl)cc2)nc2oc(-c3cccc(OC)c3)nc12 [Example 284] | 103
CCCOc1nc(CN2CC[C@@H](F)C2)nc2oc(-c3cccc(F)c3)nc12 [Example 303] | 104
CCCOc1nc(CN2CCCOCC2)nc2oc(-c3ccccc3)nc12 [Example 43] | 122
CCCOc1nc(CN2CCCC(F)C2)nc2oc(-c3cccc(F)c3)nc12 (centres unmarked) [Example 69] | 113
CCCOc1nc(CN2CCCOCC2)nc2oc(-c3cc(OC)ccc3OC)nc12 [Example 80] | 65
CCOc1nc(Cc2ccc(Cl)cc2)nc2oc(-c3cc(C)c(OCCCNCCc4nc(O)n[nH]4)c(C)c3)nc12 [Example 285] | 146
CCCOc1nc(Cc2ccc(Cl)cc2)nc2oc(-c3cc(C)c(OCC(=O)N4CC(C(=O)O)C4)c(C)c3)nc12 [Example 242] | 106

Compound | % Activation (Edg-1 receptor activation in percent of the activation by 10 μM S1P) [%]
CCCOc1nc(Cn2ncnc2C)nc2oc(-c3cccc(F)c3)nc12 [Example 155] | 87
CCCOc1nc(CN2CCCCC2)nc2oc(-c3cccc(F)c3)nc12 [Example 182] | 108
CCOc1nc(Cc2ccc(Cl)cc2)nc2oc(-c3cc(C)c(OCC(O)CSc4ncn[nH]4)c(C)c3)nc12 (centres unmarked) [Example 293] | 99
CCOc1nc(Cc2ccc(Cl)cc2)nc2oc(-c3cc(C)c(OCC(O)CNC4CCC(C)CC4)c(C)c3)nc12 (centres unmarked) [Example 265] | 132
CCCOc1nc(Cc2ccc(Cl)cc2)nc2oc(-c3ccc(OCC(O)CNCc4ccccc4)c(Cl)c3)nc12 (centres unmarked) [Example 210] | 94
CCCOc1nc(Cc2ccc(Cl)cc2)nc2oc(-c3cc(C)c(OCC(=O)N4CCOCC4)c(C)c3)nc12 [Example 306] | 81
CCCOc1nc(Cc2ccc(Cl)cc2)nc2oc(-c3cccc(Cl)c3)nc12 [Example 130] | 78
CCCOc1nc(Cn2ccnc2)nc2oc(-c3cccc(F)c3)nc12 [Example 61] | 76
CCCCOc1nc(Cc2ccc(Cl)cc2)nc2oc(-c3cccc(C)c3)nc12 [Example 108] | 31
CCOc1nc(Cc2ccc(Cl)cc2)nc2oc(-c3cccc(OCC(=O)NCCN4CCOCC4)c3)nc12 [Example 266] | 52
CCOc1nc(Cc2ccc(Cl)cc2)nc2oc(-c3cc(C)c(OCC(=O)NCCN4CCOCC4)c(C)c3)nc12 [Example 234] | 106
CCCOc1nc(CN2CCC(F)(F)CC2)nc2oc(-c3cc(Cl)ccc3OC)nc12 [Example 76] | 104
Clc1ccc(Cc2nc(OC3CCCC3)c3nc(-c4cccs4)oc3n2)cc1 [Example 114] | 83
CCCOc1nc(Cc2cc(OC)cc(OC)c2)nc2oc(-c3cccc(C)c3)nc12 [Example 166] | 42
CCOc1nc(Cc2ccc(Cl)cc2)nc2oc(-c3ccc(O)c(F)c3)nc12 [Example 273] | 106
C#CCOc1nc(Cc2ccc(Cl)cc2)nc2oc(-c3cccc(C)c3)nc12 [Example 109] | 61
CCCOc1nc(Cc2ccc(Cl)cc2)nc2oc(-c3cc(C)c(OCC(=O)NCC(=O)OC(C)(C)C)c(C)c3)nc12 [Example 256] | 69
CCCOc1nc(CN2CCC(F)(F)CC2)nc2oc(-c3ccccc3)nc12 [Example 42] | 92
CCCOc1nc(CN2CCCOCC2)nc2oc(-c3ccc(Cl)c(Cl)c3)nc12 [Example 78] | 103

Compound | % Activation (Edg-1 receptor activation in percent of the activation by 10 μM S1P) [%]
CCCOc1nc(CN2CCOCC2)nc2oc(-c3cccc(OC)c3)nc12 [Example 35] | 119
CCCOc1nc(Cc2ccc(Cl)cc2)nc2oc(-c3cc(C)c(OCC(=O)N4CCC[C@H]4C(=O)O)c(C)c3)nc12 [Example 245] | 144
CCOc1nc(Cc2ccc(Cl)cc2)nc2oc(-c3ccc(OC)c(F)c3)nc12 [Example 277] | 49
CCOc1nc(Cc2ccc(Cl)cc2)nc2oc(-c3cccc(OCC(=O)N[C@@H](C)C(=O)O)c3)nc12 [Example 268] | 100
CCOc1nc(Cc2ccc(Cl)cc2)nc2oc(-c3cc(C)c(OCC(O)CSc4nnc(C(C)(C)C)[nH]4)c(C)c3)nc12 (centres unmarked) [Example 282] | 108
CCCOc1nc(CN2CCC(F)(F)CC2)nc2oc(-c3cc(F)cc(F)c3)nc12 [Example 25] | 117
CCOc1nc(Cc2ccc(Cl)cc2)nc2oc(-c3cc(C)c(OCC(O)CS(=O)(=O)c4nnc(C5CC5)[nH]4)c(C)c3)nc12 (centres unmarked) [Example 300] | 89
CCOc1nc(Cc2ccc(Cl)cc2)nc2oc(-c3cc(C)c(OCC(=O)NCC#N)c(C)c3)nc12 [Example 294] | 83
CCCOc1nc(CN2CCC(F)(F)CC2)nc2oc(-c3c(F)ccc(F)c3F)nc12 [Example 83] | 111
FCCCOc1nc(Cc2ccc(Cl)cc2)nc2oc(-c3cccnc3)nc12 [Example 126] | 105
CCOc1nc(Cc2ccc(Cl)cc2)nc2oc(-c3cc(C)c(OCC(O)CNC(=O)CC(C)C)c(C)c3)nc12 (centres unmarked) [Example 217] | 78
CCOc1nc(Cc2ccc(Cl)cc2)nc2oc(-c3cccc(O)c3)nc12 [Example 302] | 103
CCCOc1nc(CN2CCC(F)CC2)nc2oc(-c3cccc(F)c3)nc12 [Example 70] | 113
CCCOc1nc(Cc2ccccc2)nc2oc(-c3cccc(OC)c3)nc12 [Example 317] | 105
CCCOc1nc(CN2CCS(=O)(=O)CC2)nc2oc(-c3cccc(F)c3)nc12 [Example 45] | 69
CCCOc1nc(CCc2ccc(Cl)cc2)nc2oc(-c3cccc(F)c3)nc12 [Example 6] | 60
CCOc1nc(Cc2ccc(Cl)cc2)nc2oc(-c3cc(C)c(OCCCS(=O)(=O)c4nnc(C(C)C)[nH]4)c(C)c3)nc12 [Example 275] | 88
CCCOc1nc(Cc2ccccc2)nc2oc(-c3cccc(O)c3)nc12 [Example 215] | 96

Same assay, conditions: example compound at 10 μM; relative to 10 μM S1P; GTP-γ-S SPA, human Edg-1 membranes; read-out: % Activation (Edg-1 receptor activation in percent of the activation by 10 μM S1P)

Compound | activation at 10 µM [%]
CCCOc1nc(C2(c3ccc(Cl)cc3)CC2)nc2oc(-c3cccc(C)c3)nc12 [Example 10, 5-[1-(4-Chloro-phenyl]-cyclopropyl]-7-propoxy-2-(3-methyl-phenyl)-oxazolo[5,4-d]pyrimidine] | 66
CCCOc1nc(Cc2ccc(Cl)cc2)nc2oc(-c3cccc(N)c3)nc12 [Example 21, 3-[5-(4-Chloro-benzyl)-7-propoxy-oxazolo[5,4-d]pyrimidin-2-yl]-phenylamine] | 71
CCCOc1nc(CN2CCOCC2)nc2oc(-c3ccc(Br)o3)nc12 [Example 3, 2-(5-Bromo-furan-2-yl)-5-morpholin-4-ylmethyl-7-propoxy-oxazolo[5,4-d]pyrimidine] | 113
